Assay results: patent US20250163104A1, “MACROCYCLIC IMMUNOMODULATORS” (priority 2021, published 2025)
pIC50: −log10 of the molar value. Where a SMILES comes first, the peptide text is derived from it. Bridges are numbered along the chain shown (N, C = ends). [ ]: non-standard residue; d: D form. The star is where a group is joined. Ala(1H-tetrazol-5-yl) = N[C@@H](Cc1nnn[nH]1)C(=O)O; Phe(4-COOH) = N[C@@H](Cc1ccc(C(=O)O)cc1)C(=O)O; Bip = N[C@@H](Cc1ccc(-c2ccccc2)cc1)C(=O)O; Phe(3-Me) = Cc1cccc(C[C@H](N)C(=O)O)c1; 4Pal = N[C@@H](Cc1ccncc1)C(=O)O; Carboxymethyl = O=C(O)C*; Orn = NCCC[C@H](N)C(=O)O; Dab = NCC[C@H](N)C(=O)O; Dap = NC[C@H](N)C(=O)O

biological target: T1, human PD-1 / PD-L1-Ig binding on Jurkat cell line over-expressing human PD-1 (Jurkat-PD-1) (Homo sapiens, UniProt Q15116); experiment: Jurkat-PD-1 Cell Binding High-Content Screening Assay (CBA); type: cell-based; details: Jurkat HPD1_PDL1 IC50, Jurkat-PD-1 cells, PE-labeled PD-L1-Ig 20 nM final
T1 construct: expressed in transfected cells; host or cells: Jurkat
Method in brief: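 Cell-bound PE-labeled PD-L1-Ig (20 nM final, 1 h) measured by high-content imaging after fixation and Hoechst 33342 counterstain. Compound was applied first for 2 h at 37° C. to Jurkat cells over-expressing human PD-1 in DMEM with 10% FCS.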

T1 sequence (Q15116 25-288): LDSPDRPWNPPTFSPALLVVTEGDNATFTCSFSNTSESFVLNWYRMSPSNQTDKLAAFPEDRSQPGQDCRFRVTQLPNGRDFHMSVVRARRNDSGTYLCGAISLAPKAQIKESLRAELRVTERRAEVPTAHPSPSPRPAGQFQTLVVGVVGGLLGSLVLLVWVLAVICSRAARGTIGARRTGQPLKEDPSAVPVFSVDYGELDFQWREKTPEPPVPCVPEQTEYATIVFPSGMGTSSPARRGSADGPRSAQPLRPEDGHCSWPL

Q: `CC(C)C[C@@H]1NC(=O)[C@H](Cc2c[nH]c3ccccc23)NC(=O)[C@H](CC(=O)O)NC(=O)[C@H](Cc2ccc(OCC(=O)O)cc2)NC(=O)[C@H](CN)NC(=O)CSC[C@@H](C(=O)NCC(N)=O)NC(=O)[C@H](CO)NC(=O)[C@H](C(C)C)NC(=O)[C@H](CC(C)C)NC(=O)[C@H](CC(N)=O)NC(=O)[C@@H](CC(C)C)NC(=O)[C@H](CN)NC(=O)[C@H](C(C)C)NC(=O)[C@H](Cc2ccc(-c3ccccc3)cc2)NC1=O` [Compound 1276] ({CH2CO}-[Dap]Y(Carboxymethyl)DWL[Bip]V[Dap][dL]NLVSCG-NH2; thioether N-14) was tested. Which pIC50 did it give?
A: 8.09

same assay, conditions: Jurkat-PD-1 cells, PE-labeled PD-L1-Ig 20 nM final; read-out: Jurkat HPD1_PDL1 IC50

Q: How did the pIC50 turn out when `Cc1cccc(C[C@@H]2NC(=O)[C@H](CC(=O)O)NC(=O)[C@H](Cc3ccncc3)NC(=O)[C@H](CN)NC(=O)CSC[C@@H](C(=O)NCC(N)=O)NC(=O)[C@H](CO)NC(=O)[C@H](C(C)C)NC(=O)[C@H](CC(C)C)NC(=O)[C@H](CCN)NC(=O)[C@@H](CC(C)C)NC(=O)[C@H](CCCN)NC(=O)[C@H](C(C)C)NC(=O)[C@H](Cc3ccc(-c4ccccc4)cc3)NC(=O)[C@H](CC(C)C)NC2=O)c1` [Compound 1261] ({CH2CO}-[Dap][4Pal]D[Phe(3-Me)]L[Bip]V[Orn][dL][Dab]LVSCG-NH2; thioether N-14) was run?
A: 7.88

Q: How did the pIC50 turn out when `Cc1cccc(C[C@@H]2NC(=O)[C@H](CC(=O)O)NC(=O)[C@H](Cc3ccc(OCC(=O)O)cc3)NC(=O)[C@H](Cc3ccc(OCC(=O)O)cc3)NC(=O)CSC[C@@H](C(=O)NCC(N)=O)NC(=O)[C@H](CO)NC(=O)[C@H](C(C)C)NC(=O)[C@H](CC(C)C)NC(=O)[C@H](CCN)NC(=O)[C@@H](CC(C)C)NC(=O)[C@H](CCCN)NC(=O)[C@H](C(C)C)NC(=O)[C@H](Cc3ccc(-c4ccccc4)cc3)NC(=O)[C@H](CC(C)C)NC2=O)c1` [Compound 1262] ({CH2CO}-Y(Carboxymethyl)Y(Carboxymethyl)D[Phe(3-Me)]L[Bip]V[Orn][dL][Dab]LVSCG-NH2; thioether N-14) was run?
A: 8.34

Q: How did the pIC50 turn out when `Cc1cccc(C[C@@H]2NC(=O)[C@H](CC(=O)O)NC(=O)[C@H](Cc3ccc(OCC(=O)O)cc3)NC(=O)[C@H](Cc3ccncc3)NC(=O)CSC[C@@H](C(=O)NCC(N)=O)NC(=O)[C@H](CO)NC(=O)[C@H](C(C)C)NC(=O)[C@H](CC(C)C)NC(=O)[C@H](CCN)NC(=O)[C@@H](CC(C)C)NC(=O)[C@H](CCCN)NC(=O)[C@H](C(C)C)NC(=O)[C@H](Cc3ccc(-c4ccccc4)cc3)NC(=O)[C@H](CC(C)C)NC2=O)c1` [Compound 1263] ({CH2CO}-[4Pal]Y(Carboxymethyl)D[Phe(3-Me)]L[Bip]V[Orn][dL][Dab]LVSCG-NH2; thioether N-14) was run?
A: 8.21

Q: With `Cc1cccc(C[C@@H]2NC(=O)[C@H](CC(=O)O)NC(=O)[C@H](Cc3ccc(OCC(=O)O)cc3)NC(=O)[C@H](CN)NC(=O)CSC[C@@H](C(=O)NCC(N)=O)NC(=O)[C@H](CO)NC(=O)[C@H](C(C)C)NC(=O)[C@H](CC(C)C)NC(=O)[C@H](CCN)NC(=O)[C@@H](CC(C)C)NC(=O)[C@H](CCCN)NC(=O)[C@H](C(C)C)NC(=O)[C@H](Cc3ccc(-c4ccccc4)cc3)NC(=O)[C@H](CC(C)C)NC2=O)c1` [Compound 1264] ({CH2CO}-[Dap]Y(Carboxymethyl)D[Phe(3-Me)]L[Bip]V[Orn][dL][Dab]LVSCG-NH2; thioether N-14) as the compound, how does the pIC50 read?
A: 8.35

Q: How did the pIC50 turn out when `Cc1cccc(C[C@@H]2NC(=O)[C@H](CC(=O)O)NC(=O)[C@H](Cc3ccncc3)NC(=O)[C@H](Cc3ccc(OCC(=O)O)cc3)NC(=O)CSC[C@@H](C(=O)NCC(N)=O)NC(=O)[C@H](CO)NC(=O)[C@H](C(C)C)NC(=O)[C@H](CC(C)C)NC(=O)[C@H](CCN)NC(=O)[C@@H](CC(C)C)NC(=O)[C@H](CCCN)NC(=O)[C@H](C(C)C)NC(=O)[C@H](Cc3ccc(-c4ccccc4)cc3)NC(=O)[C@H](CC(C)C)NC2=O)c1` [Compound 1265] ({CH2CO}-Y(Carboxymethyl)[4Pal]D[Phe(3-Me)]L[Bip]V[Orn][dL][Dab]LVSCG-NH2; thioether N-14) was run?
A: 8.11

Q: `CC(C)C[C@@H]1NC(=O)[C@H](CCN)NC(=O)[C@@H](CC(C)C)NC(=O)[C@H](CCN)NC(=O)[C@H](CCC(=O)O)NC(=O)[C@H](Cc2ccc(-c3ccccc3)cc2)NC(=O)[C@H](C(C)C)NC(=O)[C@H](Cc2c[nH]c3ccccc23)NC(=O)[C@H](CC(=O)O)NC(=O)[C@H](Cc2ccc(OCC(=O)O)cc2)NC(=O)[C@H](Cc2ccncc2)NC(=O)CSC[C@@H](C(=O)N[C@@H](C)C(N)=O)NC(=O)[C@H](CO)NC(=O)[C@H](C(C)C)NC1=O` [Compound 1266] ({CH2CO}-[4Pal]Y(Carboxymethyl)DWV[Bip]E[Dab][dL][Dab]LVSCA-NH2; thioether N-14) was tested. Which pIC50 did it give?
A: 7.53

Q: `CC(C)C[C@@H]1NC(=O)[C@H](CCN)NC(=O)[C@@H](CC(C)C)NC(=O)[C@H](CCN)NC(=O)[C@H](CCC(=O)O)NC(=O)[C@H](Cc2ccc(-c3ccccc3)cc2)NC(=O)[C@H](C(C)C)NC(=O)[C@H](Cc2c[nH]c3ccccc23)NC(=O)[C@H](CC(=O)O)NC(=O)[C@H](Cc2ccncc2)NC(=O)[C@H](CN)NC(=O)CSC[C@@H](C(=O)N[C@@H](C)C(N)=O)NC(=O)[C@H](CO)NC(=O)[C@H](C(C)C)NC1=O` [Compound 1267] ({CH2CO}-[Dap][4Pal]DWV[Bip]E[Dab][dL][Dab]LVSCA-NH2; thioether N-14) was tested. Which pIC50 did it give?
A: 7.00

Q: With `CC(C)C[C@@H]1NC(=O)[C@H](CCN)NC(=O)[C@@H](CC(C)C)NC(=O)[C@H](CCN)NC(=O)[C@H](CCC(=O)O)NC(=O)[C@H](Cc2ccc(-c3ccccc3)cc2)NC(=O)[C@H](C(C)C)NC(=O)[C@H](Cc2c[nH]c3ccccc23)NC(=O)[C@H](CC(=O)O)NC(=O)[C@H](Cc2ccc(OCC(=O)O)cc2)NC(=O)[C@H](Cc2ccc(OCC(=O)O)cc2)NC(=O)CSC[C@@H](C(=O)N[C@@H](C)C(N)=O)NC(=O)[C@H](CO)NC(=O)[C@H](C(C)C)NC1=O` [Compound 1268] ({CH2CO}-Y(Carboxymethyl)Y(Carboxymethyl)DWV[Bip]E[Dab][dL][Dab]LVSCA-NH2; thioether N-14) as the compound, how does the pIC50 read?
A: 7.61

Q: With `CC(C)C[C@@H]1NC(=O)[C@H](CCN)NC(=O)[C@@H](CC(C)C)NC(=O)[C@H](CCN)NC(=O)[C@H](CCC(=O)O)NC(=O)[C@H](Cc2ccc(-c3ccccc3)cc2)NC(=O)[C@H](C(C)C)NC(=O)[C@H](Cc2c[nH]c3ccccc23)NC(=O)[C@H](CC(=O)O)NC(=O)[C@H](Cc2ccc(C(=O)O)cc2)NC(=O)[C@H](Cc2ccc(OCC(=O)O)cc2)NC(=O)CSC[C@@H](C(=O)N[C@@H](C)C(N)=O)NC(=O)[C@H](CO)NC(=O)[C@H](C(C)C)NC1=O` [Compound 1269] ({CH2CO}-Y(Carboxymethyl)[Phe(4-COOH)]DWV[Bip]E[Dab][dL][Dab]LVSCA-NH2; thioether N-14) as the compound, how does the pIC50 read?
A: 7.39

Q: With `Cc1cccc(C[C@@H]2NC(=O)[C@H](Cc3nn[nH]n3)NC(=O)[C@H](Cc3ccc(OCC(=O)O)cc3)NC(=O)[C@H](CN)NC(=O)CSC[C@@H](C(=O)NCC(N)=O)NC(=O)[C@H](CO)NC(=O)[C@H](C(C)C)NC(=O)[C@H](CC(C)C)NC(=O)[C@H](CC(N)=O)NC(=O)[C@@H](CC(C)C)NC(=O)[C@H](CN)NC(=O)[C@H](C(C)C)NC(=O)[C@H](Cc3ccc(-c4ccccc4)cc3)NC(=O)[C@H](CC(C)C)NC2=O)c1` [Compound 1273] ({CH2CO}-[Dap]Y(Carboxymethyl)[Ala(1H-tetrazol-5-yl)][Phe(3-Me)]L[Bip]V[Dap][dL]NLVSCG-NH2; thioether N-14) as the compound, how does the pIC50 read?
A: 7.26

Q: How did the pIC50 turn out when `CC(C)C[C@@H]1NC(=O)[C@H](Cc2c[nH]c3ccccc23)NC(=O)[C@H](CC(=O)O)NC(=O)[C@H](Cc2ccc(O)cc2)NC(=O)[C@H](Cc2ccccc2)NC(=O)CSC[C@@H](C(=O)NCC(N)=O)NC(=O)[C@H](CO)NC(=O)[C@H](C(C)C)NC(=O)[C@H](CC(C)C)NC(=O)[C@H](CC(N)=O)NC(=O)[C@@H](CC(C)C)NC(=O)[C@H](CN)NC(=O)[C@H](C(C)C)NC(=O)[C@H](Cc2ccc(-c3ccccc3)cc2)NC1=O` [Compound 1274] ({CH2CO}-FYDWL[Bip]V[Dap][dL]NLVSCG-NH2; thioether N-14) was run?
A: 7.42

Q: How did the pIC50 turn out when `CC(C)C[C@@H]1NC(=O)[C@H](Cc2c[nH]c3ccccc23)NC(=O)[C@H](CC(=O)O)NC(=O)[C@H](Cc2ccc(C(=O)O)cc2)NC(=O)[C@H](Cc2ccc(OCC(=O)O)cc2)NC(=O)CSC[C@@H](C(=O)NCC(N)=O)NC(=O)[C@H](CO)NC(=O)[C@H](C(C)C)NC(=O)[C@H](CC(C)C)NC(=O)[C@H](CC(N)=O)NC(=O)[C@@H](CC(C)C)NC(=O)[C@H](CN)NC(=O)[C@H](C(C)C)NC(=O)[C@H](Cc2ccc(-c3ccccc3)cc2)NC1=O` [Compound 1275] ({CH2CO}-Y(Carboxymethyl)[Phe(4-COOH)]DWL[Bip]V[Dap][dL]NLVSCG-NH2; thioether N-14) was run?
A: 7.86

Q: With `CC(C)C[C@@H]1NC(=O)[C@H](Cc2c[nH]c3ccccc23)NC(=O)[C@H](CC(=O)O)NC(=O)[C@H](Cc2ccncc2)NC(=O)[C@H](CN)NC(=O)CSC[C@@H](C(=O)NCC(N)=O)NC(=O)[C@H](CO)NC(=O)[C@H](C(C)C)NC(=O)[C@H](CC(C)C)NC(=O)[C@H](CC(N)=O)NC(=O)[C@@H](CC(C)C)NC(=O)[C@H](CN)NC(=O)[C@H](C(C)C)NC(=O)[C@H](Cc2ccc(-c3ccccc3)cc2)NC1=O` [Compound 1277] ({CH2CO}-[Dap][4Pal]DWL[Bip]V[Dap][dL]NLVSCG-NH2; thioether N-14) as the compound, how does the pIC50 read?
A: 8.07

Q: How did the pIC50 turn out when `CC(C)C[C@@H]1NC(=O)[C@H](Cc2c[nH]c3ccccc23)NC(=O)[C@H](CC(=O)O)NC(=O)[C@H](Cc2ccncc2)NC(=O)[C@H](Cc2ccc(OCC(=O)O)cc2)NC(=O)CSC[C@@H](C(=O)NCC(N)=O)NC(=O)[C@H](CO)NC(=O)[C@H](C(C)C)NC(=O)[C@H](CC(C)C)NC(=O)[C@H](CC(N)=O)NC(=O)[C@@H](CC(C)C)NC(=O)[C@H](CN)NC(=O)[C@H](C(C)C)NC(=O)[C@H](Cc2ccc(-c3ccccc3)cc2)NC1=O` [Compound 1278] ({CH2CO}-Y(Carboxymethyl)[4Pal]DWL[Bip]V[Dap][dL]NLVSCG-NH2; thioether N-14) was run?
A: 7.56
